Source: patent US20100286400A1, “CRYSTALLINE SOLVATED FORMS OF (R)-2-[[[3-METHYL-4-(2,2,2-TRIFLUOROETHOXY)-2-PYRIDINYL]METHYL]SULFINYL]-1H-BENZIMIDAZOLE” (TAKEDA PHARMACEUTICAL COMPANY LIMITED, priority 2007, published 2010)
One block for each compound: values may come before it.

Experiments:
Type in all cases: physicochemical
[1] = Relationships among Forms of R(+)-lansoprazole under various conditions
From the text: The relationships among Forms of R(+)-lansoprazole were studied under various conditions.

[2] = Solubility of crystal forms as a suspension of powder in water (HPLC and XRPD)
Method: The solubilities of Forms I, II, III, IV and VI of (R)-lansoprazole obtained in the above-mentioned Reference Example 1 and Examples were tested as a suspension of power in water at 25° C. for 5 days. The solid samples of each form were tested as-is by HPLC and XRPD without particle size determination. […] The extent of chemical degradation as a function of time was similar for all forms.

[3] = Interconversion slurries of mixtures of forms in aqueous saturated solutions (XRPD); settings: slurry in water, ambient, additional time beyond 5 days
Method: Mixtures of Forms I, II, III, IV and VI were slurried in aqueous saturated solutions at ambient temperature and up to 40° C. A mixture of Form II and Pattern V material was obtained when the mixture of forms was slurried at ambient temperature for 5 days, despite the absence of Pattern V material as starting material.

chemical degradation over time ([2]; suspension in water at 25° C. for 5 days): chemically degraded over time
Structure (SMILES): Cc1c(OCC(F)(F)F)ccnc1C[S@@+]([O-])c1nc2ccccc2[nH]1 [Form II, (R)-2-[[[3-methyl-4-(2,2,2-trifluoroethoxy)-2-pyridinyl]methyl]sulfinyl]-1H-benzimidazole]
order of stability in transfer (crystal form conversion) ([1]; according to Experimental Example 2 and 3, most stable first): Form II, Form VI, Form III, Form IV, and Form V, in that order | appearance on heating ([1]; vial purged with nitrogen, heated to 93° C. in an oil bath): Sample had turned brown in up to 45 seconds, removed

form obtained on additional slurry time [3]: converted to Form II
Structure (SMILES): Cc1c(OCC(F)(F)F)ccnc1C[S@@+]([O-])c1nc2ccccc2[nH]1 [Pattern V, (R)-2-[[[3-methyl-4-(2,2,2-trifluoroethoxy)-2-pyridinyl]methyl]sulfinyl]-1H-benzimidazole]

Structure (SMILES): Cc1c(OCC(F)(F)F)ccnc1C[S@@+]([O-])c1nc2ccccc2[nH]1 [Form I, (R)-2-[[[3-methyl-4-(2,2,2-trifluoroethoxy)-2-pyridinyl]methyl]sulfinyl]-1H-benzimidazole]
XRPD of residual solids after the solubility study ([2]; after 5 days as a suspension in water at 25° C.): a mixture consisting of Form I (major component) and Form II
